Target: human integrin αvβ6 (Homo sapiens (Human), UniProt P06756+P18564)
Assay: Proximity-based integrin receptor binding assay (ALPHASCREEN) for inhibitor potency
Conditions: inhibition of binding of TGF-b1 LAP to human integrin αvβ6, values given in ranges
Summary of the method: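 AlphaScreen: integrin, compound, TGF-b1 LAP, biotinylated anti-LAP antibody and acceptor beads incubated 2 hours, then streptavidin donor beads 30 minutes, at room temperature in 50 mM Tris-HCl pH 7.5, 0.1% BSA, 1 mM CaCl2 and MgCl2. Excitation 680 nm, emission 520-620 nm; IC50 by four-parameter logistic fit.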

Chain of human integrin αvβ6 (P06756 31-992): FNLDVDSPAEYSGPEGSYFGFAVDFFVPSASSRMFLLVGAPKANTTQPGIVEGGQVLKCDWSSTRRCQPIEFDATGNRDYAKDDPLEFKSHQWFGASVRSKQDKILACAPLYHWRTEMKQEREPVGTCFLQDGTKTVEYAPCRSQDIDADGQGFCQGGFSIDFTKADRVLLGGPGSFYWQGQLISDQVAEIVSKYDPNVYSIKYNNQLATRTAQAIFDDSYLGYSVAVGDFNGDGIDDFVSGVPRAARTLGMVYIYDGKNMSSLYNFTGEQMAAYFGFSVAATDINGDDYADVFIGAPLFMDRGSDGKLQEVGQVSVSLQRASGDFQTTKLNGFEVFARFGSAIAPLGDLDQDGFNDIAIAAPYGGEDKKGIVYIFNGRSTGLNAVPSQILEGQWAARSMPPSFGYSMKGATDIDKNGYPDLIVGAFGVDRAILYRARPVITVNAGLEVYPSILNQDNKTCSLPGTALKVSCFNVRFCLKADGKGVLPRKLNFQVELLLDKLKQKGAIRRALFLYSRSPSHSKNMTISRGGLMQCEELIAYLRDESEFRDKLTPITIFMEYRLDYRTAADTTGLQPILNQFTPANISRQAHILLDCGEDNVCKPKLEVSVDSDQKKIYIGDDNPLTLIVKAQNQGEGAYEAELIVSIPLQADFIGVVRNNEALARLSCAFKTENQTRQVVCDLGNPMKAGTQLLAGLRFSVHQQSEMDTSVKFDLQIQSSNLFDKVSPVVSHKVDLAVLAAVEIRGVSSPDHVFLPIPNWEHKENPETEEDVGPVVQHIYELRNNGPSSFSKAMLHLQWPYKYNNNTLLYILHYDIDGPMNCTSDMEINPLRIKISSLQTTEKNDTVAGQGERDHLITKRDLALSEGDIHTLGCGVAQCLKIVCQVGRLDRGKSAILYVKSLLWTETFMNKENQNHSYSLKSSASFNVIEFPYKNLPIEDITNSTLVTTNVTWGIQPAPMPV
Chain of human integrin αvβ6 (P18564 22-707): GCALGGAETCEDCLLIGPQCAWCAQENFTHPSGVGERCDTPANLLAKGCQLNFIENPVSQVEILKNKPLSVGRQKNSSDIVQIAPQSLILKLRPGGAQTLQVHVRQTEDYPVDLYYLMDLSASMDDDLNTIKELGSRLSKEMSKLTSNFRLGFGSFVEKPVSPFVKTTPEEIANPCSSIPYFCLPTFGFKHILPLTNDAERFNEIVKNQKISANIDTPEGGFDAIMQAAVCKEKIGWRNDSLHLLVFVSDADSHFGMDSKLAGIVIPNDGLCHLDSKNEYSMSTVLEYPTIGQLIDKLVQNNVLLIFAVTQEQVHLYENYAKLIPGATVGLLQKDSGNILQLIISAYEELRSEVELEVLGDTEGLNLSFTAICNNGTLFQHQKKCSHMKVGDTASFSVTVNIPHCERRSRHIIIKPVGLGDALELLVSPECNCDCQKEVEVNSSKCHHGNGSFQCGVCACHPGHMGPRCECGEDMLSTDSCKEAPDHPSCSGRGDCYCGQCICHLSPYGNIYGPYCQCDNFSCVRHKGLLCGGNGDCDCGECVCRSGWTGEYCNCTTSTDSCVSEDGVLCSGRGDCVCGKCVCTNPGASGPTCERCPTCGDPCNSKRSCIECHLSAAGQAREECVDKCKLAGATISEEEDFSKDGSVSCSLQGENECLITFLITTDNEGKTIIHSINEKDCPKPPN

Row | IC50 | IC50 (listed as 98**) | SMILES
1 | 250 to 1000 nM |  | CC(C)(Cc1ccccc1)C(=O)NC(CCO[C@H]1C[C@H](CCc2ccc3c(n2)NCCC3)C1)C(=O)O (stereo partly drawn) [Compound 85, N-(2,2-dimethyl-3-phenylpropanoyl)-O-(trans-3-(2-(5,6,7,8-tetrahydro-1,8-naphthyridin-2-yl)ethyl)cyclobutyl)homoserine]
2 | 250 to 1000 nM |  | CC(C)(C(=O)NC(CCO[C@H]1C[C@H](CCc2ccc3c(n2)NCCC3)C1)C(=O)O)c1ccc(F)cc1 (stereo partly drawn) [Compound 87, N-(2-(4-fluorophenyl)-2-methylpropanoyl)-O-(trans-3-(2-(5,6,7,8-tetrahydro-1,8-naphthyridin-2-yl)ethyl)cyclobutyl)homoserine]
3 | 50 to 250 nM |  | CC1(C(=O)NC(CCO[C@H]2C[C@H](CCc3ccc4c(n3)NCCC4)C2)C(=O)O)COC1 (stereo partly drawn) [Compound 88, N-(3-methyloxetane-3-carbonyl)-O-(trans-3-(2-(5,6,7,8-tetrahydro-1,8-naphthyridin-2-yl)ethyl)cyclobutyl)homoserine]
4 | 250 to 1000 nM |  | CC(C)(CO)C(=O)NC(CCO[C@H]1C[C@H](CCc2ccc3c(n2)NCCC3)C1)C(=O)O (stereo partly drawn) [Compound 89, N-(3-hydroxy-2,2-dimethylpropanoyl)-O-(trans-3-(2-(5,6,7,8-tetrahydro-1,8-naphthyridin-2-yl)ethyl)cyclobutyl)homoserine]
5 | 250 to 1000 nM |  | COCC(C)(C)C(=O)NC(CCO[C@H]1C[C@H](CCc2ccc3c(n2)NCCC3)C1)C(=O)O (stereo partly drawn) [Compound 90, N-(3-methoxy-2,2-dimethylpropanoyl)-O-(trans-3-(2-(5,6,7,8-tetrahydro-1,8-naphthyridin-2-yl)ethyl)cyclobutyl)homoserine]
6 | 50 to 250 nM |  | CC(C)(C(=O)NC(CCO[C@H]1C[C@H](CCc2ccc3c(n2)NCCC3)C1)C(=O)O)c1cccnc1 (stereo partly drawn) [Compound 91, N-(2-methyl-2-(pyridin-3-yl)propanoyl)-O-(trans-3-(2-(5,6,7,8-tetrahydro-1,8-naphthyridin-2-yl)ethyl)cyclobutyl)homoserine]
7 | 250 to 1000 nM |  | O=C(NC(CCO[C@H]1C[C@H](CCc2ccc3c(n2)NCCC3)C1)C(=O)O)C1Cc2ccccc2C1 (stereo partly drawn) [Compound 92, N-(2,3-dihydro-1H-indene-2-carbonyl)-O-(trans-3-(2-(5,6,7,8-tetrahydro-1,8-naphthyridin-2-yl)ethyl)cyclobutyl)homoserine]
8 | 50 to 250 nM |  | CC(C)(CC#N)C(=O)NC(CCO[C@H]1C[C@H](CCc2ccc3c(n2)NCCC3)C1)C(=O)O (stereo partly drawn) [Compound 93, N-(3-cyano-2,2-dimethylpropanoyl)-O-(trans-3-(2-(5,6,7,8-tetrahydro-1,8-naphthyridin-2-yl)ethyl)cyclobutyl)homoserine]
9 | 50 to 250 nM |  | CC(C)(C)C(=O)NC(CCO[C@H]1C[C@H](CCc2ccc3c(n2)NCCC3)C1)C(=O)O (stereo partly drawn) [Compound 94, N-pivaloyl-O-(trans-3-(2-(5,6,7,8-tetrahydro-1,8-naphthyridin-2-yl)ethyl)cyclobutyl)homoserine]
10 | < 50 nM |  | O=C(O)C(CCO[C@H]1C[C@H](CCc2ccc3c(n2)NCCC3)C1)NC(=O)C1(c2ccccc2)CC1 (stereo partly drawn) [Compound 97, N-(1-phenylcyclopropane-1-carbonyl)-O-(trans-3-(2-(5,6,7,8-tetrahydro-1,8-naphthyridin-2-yl)ethyl)cyclobutyl)homoserine]
11 |  | < 50 nM | CC(C)(C(=O)NC(CCO[C@H]1C[C@H](CCc2ccc3c(n2)NCCC3)C1)C(=O)O)c1ccccc1 (stereo partly drawn) [Compound 98, N-(2-methyl-2-phenylpropanoyl)-O-(trans-3-(2-(5,6,7,8-tetrahydro-1,8-naphthyridin-2-yl)ethyl)cyclobutyl)homoserine]
12 | 50 to 250 nM |  | CC(C)(Cc1ccccc1)C(=O)NC(CCO[C@H]1C[C@H](CCc2ccc3c(n2)NCCC3)C1)C(=O)O (stereo partly drawn) [Compound 100, N-(2,2-dimethyl-3-phenylpropanoyl)-O-(trans-3-(2-(5,6,7,8-tetrahydro-1,8-naphthyridin-2-yl)ethyl)cyclobutyl)homoserine]
13 | < 50 nM |  | CC(C)(C(=O)NC(CCO[C@H]1C[C@H](CCc2ccc3c(n2)NCCC3)C1)C(=O)O)c1ccc(F)cc1 (stereo partly drawn) [Compound 102, N-(2-(4-fluorophenyl)-2-methylpropanoyl)-O-(trans-3-(2-(5,6,7,8-tetrahydro-1,8-naphthyridin-2-yl)ethyl)cyclobutyl)homoserine]
14 | < 50 nM |  | CC1(C(=O)NC(CCO[C@H]2C[C@H](CCc3ccc4c(n3)NCCC4)C2)C(=O)O)COC1 (stereo partly drawn) [Compound 103, N-(3-methyloxetane-3-carbonyl)-O-(trans-3-(2-(5,6,7,8-tetrahydro-1,8-naphthyridin-2-yl)ethyl)cyclobutyl)homoserine]
15 | < 50 nM |  | CC(C)(CO)C(=O)NC(CCO[C@H]1C[C@H](CCc2ccc3c(n2)NCCC3)C1)C(=O)O (stereo partly drawn) [Compound 104, N-(3-hydroxy-2,2-dimethylpropanoyl)-O-(trans-3-(2-(5,6,7,8-tetrahydro-1,8-naphthyridin-2-yl)ethyl)cyclobutyl)homoserine]
16 | < 50 nM |  | COCC(C)(C)C(=O)NC(CCO[C@H]1C[C@H](CCc2ccc3c(n2)NCCC3)C1)C(=O)O (stereo partly drawn) [Compound 105, N-(3-methoxy-2,2-dimethylpropanoyl)-O-(trans-3-(2-(5,6,7,8-tetrahydro-1,8-naphthyridin-2-yl)ethyl)cyclobutyl)homoserine]
17 | < 50 nM |  | CC(C)(C(=O)NC(CCO[C@H]1C[C@H](CCc2ccc3c(n2)NCCC3)C1)C(=O)O)c1cccnc1 (stereo partly drawn) [Compound 106, N-(2-methyl-2-(pyridin-3-yl)propanoyl)-O-(trans-3-(2-(5,6,7,8-tetrahydro-1,8-naphthyridin-2-yl)ethyl)cyclobutyl)homoserine]
18 | < 50 nM |  | O=C(NC(CCO[C@H]1C[C@H](CCc2ccc3c(n2)NCCC3)C1)C(=O)O)C1Cc2ccccc2C1 (stereo partly drawn) [Compound 107, N-(2,3-dihydro-1H-indene-2-carbonyl)-O-(trans-3-(2-(5,6,7,8-tetrahydro-1,8-naphthyridin-2-yl)ethyl)cyclobutyl)homoserine]
19 | < 50 nM |  | CC(C)(CC#N)C(=O)NC(CCO[C@H]1C[C@H](CCc2ccc3c(n2)NCCC3)C1)C(=O)O (stereo partly drawn) [Compound 108, N-(3-cyano-2,2-dimethylpropanoyl)-O-(trans-3-(2-(5,6,7,8-tetrahydro-1,8-naphthyridin-2-yl)ethyl)cyclobutyl)homoserine]
20 | < 50 nM |  | CC(C)(C)C(=O)NC(CCO[C@H]1C[C@H](CCc2ccc3c(n2)NCCC3)C1)C(=O)O (stereo partly drawn) [Compound 109, N-pivaloyl-O-(trans-3-(2-(5,6,7,8-tetrahydro-1,8-naphthyridin-2-yl)ethyl)cyclobutyl)homoserine]
21 | 50 to 250 nM |  | CC(C)(C)COC(=O)N[C@@H](CCO[C@H]1C[C@H](CCc2ccc3c(n2)NCCC3)C1)C(=O)O [Compound 112, N-((neopentyloxy)carbonyl)-O-(trans-3-(2-(5,6,7,8-tetrahydro-1,8-naphthyridin-2-yl)ethyl)cyclobutyl)homoserine]
22 | < 50 nM |  | CC1(OC(=O)N[C@@H](CCO[C@H]2C[C@H](CCc3ccc4c(n3)NCCC4)C2)C(=O)O)CC1 [Compound 113, N-((1-methylcyclopropoxy)carbonyl)-O-(trans-3-(2-(5,6,7,8-tetrahydro-1,8-naphthyridin-2-yl)ethyl)cyclobutyl)homoserine]
23 | < 50 nM |  | CC(C)(OC(=O)N[C@@H](CCO[C@H]1C[C@H](CCc2ccc3c(n2)NCCC3)C1)C(=O)O)C(F)(F)F [Compound 115, O-(trans-3-(2-(5,6,7,8-tetrahydro-1,8-naphthyridin-2-yl)ethyl)cyclobutyl)-N-(((1,1,1-trifluoro-2-methylpropan-2-yl)oxy)carbonyl)homoserine]
24 | < 50 nM |  | CC(C)OC(=O)N[C@@H](CCO[C@H]1C[C@H](CCc2ccc3c(n2)NCCC3)C1)C(=O)O [Compound 116, N-(isopropoxycarbonyl)-O-(trans-3-(2-(5,6,7,8-tetrahydro-1,8-naphthyridin-2-yl)ethyl)cyclobutyl)homoserine]
25 | < 50 nM |  | CCN(CC)C(=O)N[C@@H](CCO[C@H]1C[C@H](CCc2ccc3c(n2)NCCC3)C1)C(=O)O [Compound 117, N-(diethylcarbamoyl)-O-(trans-3-(2-(5,6,7,8-tetrahydro-1,8-naphthyridin-2-yl)ethyl)cyclobutyl)homoserine]
26 | < 50 nM |  | CC(C)(C)NC(=O)N[C@@H](CCO[C@H]1C[C@H](CCc2ccc3c(n2)NCCC3)C1)C(=O)O [Compound 118, N-(tert-butylcarbamoyl)-O-(trans-3-(2-(5,6,7,8-tetrahydro-1,8-naphthyridin-2-yl)ethyl)cyclobutyl)homoserine]
27 | 50 to 250 nM |  | CN(C(=O)N[C@@H](CCO[C@H]1C[C@H](CCc2ccc3c(n2)NCCC3)C1)C(=O)O)C(C)(C)C [Compound 119, N-(tert-butyl(methyl)carbamoyl)-O-(trans-3-(2-(5,6,7,8-tetrahydro-1,8-naphthyridin-2-yl)ethyl)cyclobutyl)homoserine]

Row | SMILES | IC50 | IC50 (listed as 98**)
28 | CC(C)(C)OC(=O)NC(CCO[C@H]1C[C@H](CCc2ccc3c(n2)NCCC3)C1)C(=O)O (stereo partly drawn) [Compound 86, N-(tert-butoxycarbonyl)-O-(trans-3-(2-(5,6,7,8-tetrahydro-1,8-naphthyridin-2-yl)ethyl)cyclobutyl)homoserine] | 250 to 1000 nM | 
29 | CC(C)(C)OC(=O)NC(CCO[C@H]1C[C@H](CCc2ccc3c(n2)NCCC3)C1)C(=O)O (stereo partly drawn) [Compound 101, N-(tert-butoxycarbonyl)-O-(trans-3-(2-(5,6,7,8-tetrahydro-1,8-naphthyridin-2-yl)ethyl)cyclobutyl)homoserine] | < 50 nM | 
30 | CC1(OC(=O)N[C@@H](CCO[C@H]2C[C@H](CCc3ccc4c(n3)NCCC4)C2)C(=O)O)CCC1 [Compound 114, N-((1-methylcyclobutoxy)carbonyl)-O-(trans-3-(2-(5,6,7,8-tetrahydro-1,8-naphthyridin-2-yl)ethyl)cyclobutyl)homoserine] | < 50 nM | 

— patent US11180494B2, “Substituted amino acids as integrin inhibitors” (Pliant Therapeutics, Inc., priority 2018, dated 2021)
